How the values were obtained:
[1] = Effect of peroxide/penta weight ratios on the oxidation of pentachlorophenol; settings: Fe2+/H2O2 3%, pH 3.5
Procedure: a) Effect of peroxide/penta weight ratios on the oxidation of pentachlorophenol
Appropriate amounts of technical grade pentachlorophenol were dissolved in deionized water (the pH of which was kept at 8 to 9 with 5% NaOH solution) to yield solutions containing 19.0, 38.1, 66.6 and76.2 ppm pentachlorophenol.
100 ml of each of the above solutions was placed in each of four 100 ml beakers.
157.5 mg H2 O2 (≈0.42 ml of 35% solution) were added to each beaker to give peroxide/penta weight ratios of 82.7, 41.3, 27.6 and 20.7, respectively.
4.74 mg of Fe^2+ (≈0.85 ml of 0.1 molar solution of ferrous sulphate heptahydrate) were then added to give a constant Fe^2+ /H2 O2 weight ratio of 3% in each beaker.

[2] = Field trials: peroxide oxidation of wood preserving wastewater, then carbon adsorption
Procedure: In field trials 900 liter samples of wood preserving wastewater of known Chemical Oxygen Demand (COD) was treated as follows:
This antifoam agent was added because foaming was expected in view of the large volume of waste water being treated.
An amount of Fe^2+ (as 0.1M or 1M ferrous sulphate heptahydrate) equivalent to 5-7% of the total H2 O2 by weight was added with fast agitation. The pH was kept at 3-3.8 at a temperature of 40°±5° C.
The reaction was judged complete when the colour of the reaction mixture turned light yellow similar to that of a ferric ions solution (3-3.5 hrs.)
The catalyst was separated by co-precipitation with alum or poly electrolytes.

Oc1c(Cl)c(Cl)c(Cl)c(Cl)c1Cl [Pentachlorophenol, pentachlorophenol]
PCP destruction ([1]; PCP 19.0 ppm, H2O2/PCP ratio 82.7): 96.2% | PCP destruction ([1]; PCP 38.1 ppm, H2O2/PCP ratio 41.3): 98.2% | PCP destruction ([1]; PCP 66.6 ppm, H2O2/PCP ratio 27.6): 98.9% | PCP destruction ([1]; PCP 76.2 ppm, H2O2/PCP ratio 20.7): 95.9% | removed after oxidation followed by carbon adsorption ([2]; field trial): > 99.3% | removed after oxidation only ([2]; field trial): 92.60-98.75% | destruction levels of contaminants by oxidation ([2]; summary of process): ~99.9%

Source: US5716528A, “Peroxide water treatment process” (Domtar Inc., priority 1995, dated 1998)
